Here are results for two molecules from article PMC7730638, “Liposomes Composed by Membrane Lipid Extracts from Macrophage Cell Line as a Delivery of the Trypanocidal N,N’-Squaramide 17 towards Trypanosoma cruzi” (Materials, 2020).

The nature of series [1]: Cytotoxicity in VERO cells (resazurin). The series is classed as cell-based. To be noted: African green monkey, VERO cells (ATCC CCL81), 50 μM to 800 μM, read-out: VERO Cell CC50. On the procedure: (§1) VERO (ATCC CCL81) and RAW 264.7 cells (ATCC TIB71) were maintained in RPMI-1640 supplemented with 10% fetal bovine serum (FBS) (Sigma Aldrich, St. Louis, MO, USA) without phenol red at 37 °C and 5% CO2 [14]. […] Trypomastigotes were obtained from monolayers of infected VERO cells grown at 37 °C in an atmosphere with 5% CO2 in RPMI-1640, pH 7.4, supplemented with 10% FBS and 100 μg/mL gentamicin.
(§2) The reference drug benznidazole (BZ) was dissolved in dimethyl sulfoxide (DMSO) at 5% (w/v) at 0.002 M (stock) and the final concentration of DMSO in the experiments never exceeded 0.25% (v/v) to not affect the cell viability. The MLV, MLS, and free S were dispersed or dissolved in deionized water. The final concentration of these treatments in the experiments never exceeded 0.01% (v/v). […] Thereafter, 20 μL of resazurin—(0.39 mM, Sigma Aldrich, St. Louis, MO, USA) was added to each well, followed by incubation for 2 h, and then fluorescence was read on a microplate reader SpectraMax M5 (570 nmex/595 nmem) (Molecular Devices, Sunnyvale, CA, USA). Percentage of cell viability was calculated using the equation below, where A is the arbitrary fluorescence units (AFU) of the treatments, B is AFU culture medium with resazurin and C is AFU of the control group. […]
In general terms: The colour change of resazurin is a common sign of viable cells or microbes.

Series [2] deals with T. cruzi (strain CL-Brener) epimastigote. As to the kind of experiment: Trypanocidal activity on epimastigotes (resazurin). The series is classed as cell-based. The note with it: Trypanosoma cruzi; 6.25 μM to 100 μM, 72 h. How it is done: (§3) VERO (ATCC CCL81) and RAW 264.7 cells (ATCC TIB71) were maintained in RPMI-1640 supplemented with 10% fetal bovine serum (FBS) (Sigma Aldrich, St. Louis, MO, USA) without phenol red at 37 °C and 5% CO2 [14]. […] Trypomastigotes were obtained from monolayers of infected VERO cells grown at 37 °C in an atmosphere with 5% CO2 in RPMI-1640, pH 7.4, supplemented with 10% FBS and 100 μg/mL gentamicin. […] Then, 2.5 × 10^5 epimastigotes/mL were resuspended in 150 μL and added to the microplates. After 48 h, resazurin was added (20 μL/well of resazurin −3 mM), incubated for further 24 h, and fluorescence was recorded as described above. Nanostructures’ effect on amastigotes was accessed in VERO cell line grown in RPMI medium containing 10% FBS and seeded at a density of 1 × 10^4 cells/well in 24-well microplates. […] Cells were fixed and stained with Kit for Fast Staining in Haematology (Figure S2), and the number of amastigotes was determined by counting 200 cells for each experimental group distributed in random microscopic fields. The IC50 values were determined by nonlinear regression in GraphPad Prism version 7.0 (GraphPad Software, San Diego, CA, USA). Selectivity indices (SI) were calculated using the formula: SI = CC50 cytotoxicity in VERO cells/IC50 cytotoxicity in intracellular amastigotes.

In series [3] the test system is T. cruzi intracellular amastigotes. As to the kind of experiment: Trypanocidal activity on intracellular amastigotes in infected VERO cells (counting of stained cells). The series is classed as cell-based. To be noted: Trypanosoma cruzi, 6.25 μM to 100 μM, 72 h. How it is done: as §3
For series [4], the system named is Epimastigotes of T. cruzi. As to the kind of experiment: Ultrastructural changes in epimastigotes (SEM). In kind it is cell-based, Trypanosoma cruzi. To be noted: half of IC50 (BZ 7.91 µM, S 6.56 µM), 72 h. On the procedure: Epimastigotes of T. cruzi were grown at a density of 5 × 10^5 cells/mL in RPMI culture medium containing the compounds tested at concentrations of 7.91 µM (BZ), 6.56 µM (S), and 7.93 µM (MLS) corresponding to the half of IC50 of each compound. After 72 h these cultures were centrifuged at 1600× g for 10 min. Parasites were washed in PBS and fixed for 1 h at room temperature with 2% formaldehyde and 2.5% glutaraldehyde in sodium cacodylate buffer (0.1 M, pH 7.2). Samples were then washed in 0.1 M cacodylate buffer and adhered to coverslips previously coated with poly-L-lysine (Sigma Aldrich, St. Louis, MO, USA). After adhesion, post-fixation was performed using a solution of 1% OsO4 containing 0.8% potassium ferrocyanide (K4Fe (CN)6). Then, parasites were dehydrated in increasing concentrations of acetone (30%, 50%, 70%, 90%, and 100%), subject to critical-point drying, metalized with gold, and observed in a scanning electron microscope (SEM)- (JEOL JSM-7000F, Tokyo, Japan). Sample images were visualized using a 15 kV beam voltage.

Series [5] in a line: Cytotoxicity in RAW 264.7 macrophages (resazurin). The note with it: mouse, RAW 264.7 macrophages (ATCC TIB71), 50 μM to 800 μM, read-out: RAW 264.7 Macrophage CC50. In kind it is cell-based. On the procedure: as §1, §2
In series [6] the test system is Trypanosoma cruzi. Further details: method as in PMID 24410674. To be noted: acute phase, mice, after 40 days of treatment, compared to control; cited from earlier work.
For series [7] the following is noted: cited from earlier work.
Series [8] is described as follows: Entrapment efficiency (filtration, absorbance at 320 nm). In kind it is physicochemical. The note with it: for Entrapment efficiency: mean of triplicate, 320 nm. How it is done: The MLS nanostructures were evaluated in terms of drug entrapment efficiency (EE), established as a ratio between the encapsulation (ED) over the initial quantity of the drug (ID), according to the Equation (1) below: (1) EE %=ED mg/ID mg×100 For the determination of EE, the S-loaded nanostructures were filtrated in 100 kDa Amicon filters (Amicon® Ultra 0.5 mL centrifuge filters - Millipore, Darmstadt, Germany) at 300× g for 10 min, 4 °C [17]. Unentrapped drug (filtered content) was collected and the absorbance was measured at 320 nm using a biophotometer (Eppendorf BioPhotometer® 6131, Hamburg, Germany) (Figure S1). […] Experiments were performed in triplicates.

Several values for one entry are separate records, joined by “and”; a condition that tells them apart may be missing. Equal entries are not always repeated.

The term CC50 denotes the concentration giving 50% cytotoxicity. Usually IC50 stands for the midpoint of a concentration-inhibition curve. Higher therefore signals weaker potency in that assay. As for `O=C(Cn1ccnc1[N+](=O)[O-])NCc1ccccc1` [BZ, benznidazole, reference compound], the CC50 at 72 h stood at 284.4 ± 1.25 µM in series [1] and 554.8 ± 4.9 µM in series [5]. Besides, the IC50 in series [2] was found to be 15.8 ± 4.63 µM; in series [3] it was 4.76 ± 4.45 µM. Further, the “Morphological alterations in epimastigotes” value in series [4] was “prominences in the cell body and distortion in the flagellum”.
For `CCCCNc1c(N(C)CCCN(C)C)c(=O)c1=O` [S, N, N’-Squaramide 17], the Reduction of parasitemia in series [6] is 67%. Moreover, the “Partition coefficient log P” value in series [7] is given as 0.59. In addition, the figures for the 50% cytotoxic concentration (CC50) at 72 h in series [1] and in series [5] were 736.2 ± 1.23 µM and 1654 ± 5.2 µM, respectively. The IC50 in series [2] is 13.1 ± 5.12 µM; in series [3] it was 51.2 ± 4.91 µM. In series [4], the “Morphological alterations in epimastigotes” value is “a protuberance on the cell”. Besides, the Entrapment efficiency in series [8] is on record as 73.35% ± 2.05%; in series [8] (listed as N, N’-Squaramide 17), 73.35%. The “Entrapment efficiency, single replicates” value in series [8] (replicates 1-3, 320 nm, listed as N, N’-Squaramide 17) was 75.71% and 72.07% and 72.35%.
